In brackets after ≈: the same amount, converted by molar mass.
How the values were obtained:
HSV-1 = experiment: HSV Antiviral (ELISA) Assay; format: cell-based, herpes simplex virus type 1; settings: Vero cells, HSV-1; for IC50: Human alphaherpesvirus 1, Vero, read-out: IC50 Ug/ml HSV
Method: Vero cells (ATCC #CCL-81) are plated on 96-well tissue culture plates at 3.5×10^4 cells per 100 μl tissue culture DMEM (Dulbecco's modified Eagle media) supplemented with 2% fetal bovine serum (FBS) in each well. After overnight incubation @ 37° C. (in 5% CO2) and 30 minutes prior to infection with HSV-1 (multiplicity of infection equal to 0.006), cells are either untreated, or treated with test compound (multiple concentrations) or reference standard drug control. After approximately 24 hours post-infection incubation @ 37° C. (in 5% CO2), cells are fixed for ELISA assay. The primary antibody is murine anti-HSV glycoprotein D monoclonal primary antibody and the secondary antibody is goat anti-mouse IgG linked to β-galactosidase. Thus the extent of viral replication is determined by assessing β-galactosidase activity by quantifying the generation of the 4-methyl umbelliferone fluorescent cleavage product after addition of the methyl umbelliferyl-β-D-galactoside (Sigma #M1633) substrate on a microfluorimeter (365 nm for excitation and 450 nm for emission). Antiviral activity (IC50) of the test compound is determined by comparing the flourescence obtained in absence of compound to that obtained in the presence of compound.

VZV strain Ellen = experiment: VZV Antiviral (ELISA) Assay; format: cell-based, varicella-zoster virus; settings: human foreskin fibroblast cells; for IC50 / inhibition at 10 µg/mL: Human alphaherpesvirus 3, Fibroblast; for IC50: read-out: IC50 Ug/ml VZV; for inhibition at 10 µg/mL: read-out: % inhibition 10 ug/ml VZV, 10 ug/ml
Method: For the generation of stock VZV to be used in the assay, VZV strain Ellen (ATCC #VR-1367) is used to infect human foreskin fibroblast (HFF) cells at low multiplicity (less than 0.1) and incubated overnight at 37° C. in 5% CO2. After the overnight incubation, the mixture of uninfected and VZV-infected HFF infected cells are then harvested and added to each well of 96-well plates (3.5×10^4 cells in 100 μl DMEM supplemented with 2% FBS) which contain test compound or the reference standard drug control (in 100 μl DMEM supplemented with 2% FBS per well). These cells are incubated for three days at 37° C. in 5% CO2, then fixed for ELISA assay. The primary antibody is murine anti-VZV glycoprotein II monoclonal antibody (Applied Biosystems, Inc. #13-145-100) and the secondary antibody is goat anti-mouse IgG linked to β-galactosidase. Thus the extent of viral replication is determined by assessing β-galactosidase activity by quantifying the generation of the 4-methyl umbelliferone fluorescent cleavage product after addition of the methyl umbelliferyl-β-D-galactoside (Sigma #M1633) substrate on a microfluorimeter (365 nm for excitation and 450 nm for emission). Antiviral activity (IC50) of the test compound is determined by comparing the flourescence obtained in absence of compound to that obtained in the presence of compound.

HCMV wild-type = experiment: HCMV yield assay; format: cell-based, human cytomegalovirus; settings: human foreskin fibroblasts; for IC50: Human betaherpesvirus 5, Fibroblast, read-out: IC50 Ug/ml HCMV
Method: Yield assay. Monolayer cultures of human foreskin fibroblasts are infected with HCMV wild-type, typically at a multiplicity of infection equal to 0.2, in the presence of inhibitor compound (varying concentrations). At three days post-infection, total virus produced in these cultures (i.e. virus yield) is assessed by harvesting and titering the virus in 12-well plates of cultured human foreskin fibroblasts (done in the absence of inhibitor). Plaques are quantified at 2 weeks post-infection. An inhibitor of HCMV is identified by the reduction in titer of virus yield in the presence, compared to the titer in the absence of compound. In this assay, the relative anti-HCMV activity of an inhibitor is typically determined by calculating the IC50 or IC90 value, that is, the amount of compound required to reduce the virus yield by 50% or 90%, respectively. Table I describes IC50 data for compounds tested against HCMV.

Row | Compound | IC50 (HSV-1) | IC50 (VZV strain Ellen) | inhibition at 10 µg/mL (VZV strain Ellen) | IC50 (HCMV wild-type) | IC50 Ug/ml HSV (HSV-1) | % inhibition 10 ug/ml VZV (VZV strain Ellen; 10 ug/ml) | IC50 Ug/ml VZV (VZV strain Ellen) | IC50 Ug/ml HCMV (HCMV wild-type)
1 | CC(=O)Nc1ccc(NC(=S)Nc2ccc(NC3CCN(Cc4ccccc4)CC3)c(Cl)c2)cc1 [Example 315, N-(4-{3-[4-(1-Benzyl-piperidin-4-ylamino)-3-chloro-phenyl]-thioureido}-phenyl)-acetamide] | 8 µg/mL (≈ 15.7 µM) | > 10 µg/mL | 40% | 1.5 µg/mL (≈ 2.95 µM) |  |  |  | 
2 | CCN(CC)CC(=O)Nc1ccc(NC(=S)Nc2ccc(NC(C)=O)cc2)cc1Cl [Example 412, N-{4-[3-(4-Acetylamino-phenyl)-thioureido]-2-chloro-phenyl}-2-diethyl-amino-acetamide] |  |  |  |  | >10 Ug/ml | 29% | >10 Ug/ml | >10 Ug/ml
3 | CCCCCCN(C)c1ccc(NC(=S)Nc2ccc(NC(C)=O)cc2)cc1Cl [Example 906, N-(4-{3-[3-Chloro-4-(hexyl-methyl-amino)-phenyl]-thioureido}-phenyl)-acetamide] | > 10 µg/mL | > 10 µg/mL | 32% | 1.5 µg/mL (≈ 3.46 µM) |  |  |  | 
4 | COc1cc(OC)c(NC(=S)Nc2cc(OC)c(NC(C)=O)cc2C)cc1Cl [Example 285, N-{4-[3-(5-Chloro-2,4-dimethoxy-phenyl)-thioureido]-2-methoxy-5-methyl-phenyl}-acetamide] | > 50 µg/mL | > 10 µg/mL | 18% | > 50 µg/mL |  |  |  | 
5 | COc1cc(OC)c(NC(=S)Nc2ccc(NC(C)=O)c(C#N)c2)cc1Cl [Example 259, N-{4-[3-(5-Chloro-2,4-dimethoxy-phenyl)-thioureido]-2-cyano-phenyl}-acetamide] | > 50 µg/mL | > 10 µg/mL | 28% | > 50 µg/mL |  |  |  | 
6 | CC(=O)Nc1ccc(NC(=S)Nc2cc(Cl)ccc2O)cc1 [Example 126, N-{4-[3-(5-Chloro-2-hydroxy-phenyl)-thioureido]-phenyl}-acetamide] | 30 µg/mL (≈ 89.3 µM) | > 10 µg/mL | 23% | 20 µg/mL (≈ 59.6 µM) |  |  |  | 
7 | CC(=O)Nc1ccc(NC(=S)Nc2ccc(N3CCCC4CCCCC43)c(Cl)c2)cc1 (centres unmarked) [Example 282, N-(4-{3-[3-Chloro-4-(octahydro-quinolin-1-yl)-phenyl]-thioureido}-phenyl)-acetamide] | > 10 µg/mL | > 10 µg/mL | 50% | > 10 µg/mL |  |  |  | 
8 | CCOc1c(Cl)cc(NC(=S)Nc2ccc(NC(C)=O)cc2)cc1Cl [Example 176, N-{4-[3-(3,5-Dichloro-4-ethoxy-phenyl)-thioureido]-phenyl}-acetamide] | > 50 µg/mL | > 10 µg/mL | 24% | 0.5 µg/mL (≈ 1.26 µM) |  |  |  | 
9 | COc1cc(OC)c(NC(=S)Nc2ccc(NC(C)=O)cc2)cc1I [Example 197, N-{4-[3-(5-Iodo-2,4-dimethoxy-phenyl)-thioureido]-phenyl}-acetamide] | 6 µg/mL (≈ 12.7 µM) | > 15 µg/mL | 59% | > 10 µg/mL |  |  |  | 
10 | CCOc1cc(OC)c(Cl)cc1NC(=S)Nc1ccc(NC(C)=O)cc1 [Example 831, N-{4-[3-(5-Chloro-2-ethoxy-4-methoxy-phenyl)-thioureido]-phenyl}-acetamide] | 3 µg/mL (≈ 7.62 µM) | > 10 µg/mL | 11% | > 10 µg/mL |  |  |  | 
11 | CC(=O)Nc1ccc(NC(=S)Nc2ccc(OC3CCN(C)CC3)c(Cl)c2)cc1 [Example 335, N-(4-{3-[3-Chloro-4-(1-methyl-piperidin-4-yloxy)-phenyl]-thioureido}-phenyl)-acetamide] | 30 µg/mL (≈ 69.3 µM) | > 10 µg/mL | 8% | 30 µg/mL (≈ 69.3 µM) |  |  |  | 
12 | CC(=O)Nc1ccc(NC(=S)Nc2ccc(N(C)C3CCCC3)c(Cl)c2)cc1 [Example 844, N-(4-{3-[3-Chloro-4-(cyclopentyl-methyl-amino)-phenyl]-thioureido}-phenyl)-acetamide] | 15 µg/mL (≈ 36 µM) | > 10 µg/mL | 32% | 0.8 µg/mL (≈ 1.92 µM) |  |  |  | 
13 | CC(=O)Nc1ccc(NC(=S)Nc2cc(C)c(O)c(Cl)c2)cc1 [Example 128, N-{4-[3-(3-Chloro-4-hydroxy-5-methyl-phenyl)-thioureido]-phenyl}-acetamide] | 15 µg/mL (≈ 42.9 µM) | > 10 µg/mL | 35% | 15 µg/mL (≈ 42.9 µM) |  |  |  | 
14 | CC(=O)Nc1ccc(NC(=S)Nc2ccc(OCC#N)c(Cl)c2)cc1 [Example 251, N-(4-{3-[3-Chloro-4-(2-nitrilo-ethoxy)-phenyl]-thioureido}-phenyl)-acetamide] | > 50 µg/mL | > 10 µg/mL | 22% | 7 µg/mL (≈ 18.7 µM) |  |  |  | 
15 | COc1ccc(NC(=S)Nc2ccc(NC(C)=O)cc2)cc1Cl [Example 106, N-{4-[3-(3-Chloro-4-methoxy-phenyl)-thioureido]-phenyl}-acetamide] | 3 µg/mL (≈ 8.58 µM) | > 10 µg/mL | 20% | 7 µg/mL (≈ 20 µM) |  |  |  | 
16 | COCCN(C)c1ccc(NC(=S)Nc2ccc(NC(C)=O)cc2)cc1Cl [Example 317, N-[4-(3-{3-Chloro-4-[(2-methoxy-ethyl)-methyl-amino]-phenyl}-thioureido)-phenyl]-acetamide] | 35 µg/mL (≈ 86 µM) | > 10 µg/mL | 30% | 2 µg/mL (≈ 4.91 µM) |  |  |  | 
17 | COc1cc(OC)c(NC(=S)Nc2ccc(NC(C)=O)c3ccccc23)cc1Cl [Example 329, N-{4-[3-(5-Chloro-2,4-dimethoxy-phenyl)-thioureido]-naphthalen-1-yl}-acetamide] | 4 µg/mL (≈ 9.3 µM) | > 10 µg/mL | 38% | > 10 µg/mL |  |  |  | 
18 | COc1cc(OCCO)c(Cl)cc1NC(=S)Nc1ccc(NC(C)=O)cc1 [Example 215, N-(4-{3-[5-Chloro-4-(2-hydroxy-ethoxy)-2-methoxy-phenyl]-thioureido}-phenyl)-acetamide] | > 50 µg/mL | > 10 µg/mL | 30% | > 10 µg/mL |  |  |  | 
19 | CC(=O)Nc1ccc(NC(=S)Nc2cc(Cl)c(OCC(=O)OC(C)(C)C)c(Cl)c2)cc1 [Example 887, {4-[3-(4-Acetylamino-phenyl)-thioureido]-2,6-dichloro-phenoxy}-acetic acid tert-butyl ester] | 45 µg/mL (≈ 92.9 µM) | > 10 µg/mL | 38% | > 10 µg/mL |  |  |  | 
20 | COc1cc(OC)c(NC(=S)Nc2cccc(NC(C)=O)c2)cc1Cl [Example 100, N-{3-[3-(5-Chloro-2,4-dimethoxy-phenyl)-thioureido]-phenyl}-acetamide] | 40 µg/mL (≈ 105 µM) | > 10 µg/mL | 19% | > 50 µg/mL |  |  |  | 
21 | CC(=O)Nc1ccc(NC(=S)Nc2ccc(-c3cc[nH]n3)c(Cl)c2)cc1 [Example 925, N-(4-{3-[3-Chloro-4-(1H-pyrazol-3-yl)-phenyl]-thioureido}-phenyl)-acetamide] | > 10 µg/mL | > 10 µg/mL | 32% | 3.5 µg/mL (≈ 9.07 µM) |  |  |  | 
22 | CCN(c1ccc(NC(=S)Nc2ccc(NC(C)=O)cc2)cc1Cl)C1CCCCC1 [Example 267, N-(4-{3-[3-Chloro-4-(cyclohexyl-ethyl-amino)-phenyl]-thioureido}-phenyl)-acetamide] | > 10 µg/mL | > 10 µg/mL | 25% | > 10 µg/mL |  |  |  | 
23 | CC(=O)Nc1ccc(NC(=S)Nc2cc(Cl)c(O)c(Cl)c2)cc1 [Example 108, N-{4-[3-(3,5-Dichloro-4-hydroxy-phenyl)-thioureido]-phenyl}-acetamide] | 50 µg/mL (≈ 135 µM) | > 10 µg/mL | 28% | > 50 µg/mL |  |  |  | 
